Our source for the EC50 values is patent US10150760B2, “Compounds for use in preparing heterocyclic triazole agonists of the APJ receptor” (AMGEN INC., priority 2016, dated 2018).

For the assay, the target named is human APJ receptor (Homo sapiens (Human), UniProt P35414). In words: [35S]GTPγS binding assay on membranes from CHO cells stably expressing human APJ receptor. The assay is classed as biochemical. As to conditions: read-out: Activity hAPJ SPA EC50 IP. In outline: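 Membranes from CHO cells stably expressing human APJ incubated with ligand, 0.2 nM [35S]GTPγS and WGA SPA beads in HEPES pH 7.5 with 5 mM MgCl2, 200 mM NaCl, 3 μM GDP, 90 min at RT. Nonspecific binding defined with 100 μM GTPγS; EC50 by non-linear regression.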
Background: GTPγS is a poorly hydrolysed GTP analogue; its binding reports G protein activation.

Chain of human APJ receptor (P35414 whole entry): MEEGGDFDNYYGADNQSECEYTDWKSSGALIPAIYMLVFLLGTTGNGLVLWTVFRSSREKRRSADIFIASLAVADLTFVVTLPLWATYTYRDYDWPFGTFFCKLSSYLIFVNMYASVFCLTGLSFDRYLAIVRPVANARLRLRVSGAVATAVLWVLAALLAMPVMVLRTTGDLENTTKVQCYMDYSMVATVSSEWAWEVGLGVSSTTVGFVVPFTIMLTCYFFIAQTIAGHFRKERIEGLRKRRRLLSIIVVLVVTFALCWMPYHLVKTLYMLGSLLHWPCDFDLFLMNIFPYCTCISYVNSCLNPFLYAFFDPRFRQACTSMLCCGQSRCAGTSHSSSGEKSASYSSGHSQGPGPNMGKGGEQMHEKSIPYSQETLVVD

Take `COc1cccc(OC)c1-n1c(NS(=O)(=O)[C@@H](C)[C@H](C)c2ncc(F)cn2)nnc1[C@@H]1COC(C)(C)C1` (single isomer, unassigned) [Example 395.0, (2S,3R)-N-(4-(2,6-dimethoxyphenyl)-5-((3R)-5,5-dimethyltetrahydro-3-furanyl)-4H-1,2,4-triazol-3-yl)-3-(5-fluoro-2-pyrimidinyl)-2-butanesulfonamide or (2S,3R)-N-(4-(2,6-dimethoxyphenyl)-5-((3S)-5,5-dimethyltetrahydro-3-furanyl)-4H-1,2,4-triazol-3-yl)-3-(5-fluoro-2-pyrimidinyl)-2-butanesulfonamide]: the EC50 – broadly, the midpoint of the concentration-response curve – came out at 67 nM.

On to `COc1cccc(OC)c1-n1c(NS(=O)(=O)[C@@H](C)[C@H](C)c2ncc(F)cn2)nnc1[C@@H]1COC(C)(C)C1` (single isomer, unassigned) [Example 396.0, (2S,3R)-N-(4-(2,6-dimethoxyphenyl)-5-((3R)-5,5-dimethyltetrahydro-3-furanyl)-4H-1,2,4-triazol-3-yl)-3-(5-fluoro-2-pyrimidinyl)-2-butanesulfonamide or (2S,3R)-N-(4-(2,6-dimethoxyphenyl)-5-((3S)-5,5-dimethyltetrahydro-3-furanyl)-4H-1,2,4-triazol-3-yl)-3-(5-fluoro-2-pyrimidinyl)-2-butanesulfonamide], for which the concentration giving a half-maximal response (EC50) was determined as 58 nM.

In the case of `COc1cccc(OC)c1-n1c(NS(=O)(=O)[C@@H](C)[C@H](OC)c2ncc(Cl)cn2)nnc1[C@H]1CCC(=O)N1` (single isomer, unassigned) [Example 397.0, (1R,2S)-1-(5-chloro-2-pyrimidinyl)-N-(4-(2,6-dimethoxyphenyl)-5-((2R)-5-oxo-2-pyrrolidinyl)-4H-1,2,4-triazol-3-yl)-1-methoxy-2-propanesulfonamide or (1R,2S)-1-(5-chloro-2-pyrimidinyl)-N-(4-(2,6-dimethoxyphenyl)-5-((2S)-5-oxo-2-pyrrolidinyl)-4H-1,2,4-triazol-3-yl)-1-methoxy-2-propanesulfonamide], the 50% effective concentration (EC50) stood at 160 nM.

Turning to `COc1cccc(OC)c1-n1c(NS(=O)(=O)[C@@H](C)[C@H](OC)c2ncc(Cl)cn2)nnc1[C@H]1CCC(=O)N1` (single isomer, unassigned) [Example 398.0, (1R,2S)-1-(5-chloro-2-pyrimidinyl)-N-(4-(2,6-dimethoxyphenyl)-5-((2R)-5-oxo-2-pyrrolidinyl)-4H-1,2,4-triazol-3-yl)-1-methoxy-2-propanesulfonamide or (1R,2S)-1-(5-chloro-2-pyrimidinyl)-N-(4-(2,6-dimethoxyphenyl)-5-((2S)-5-oxo-2-pyrrolidinyl)-4H-1,2,4-triazol-3-yl)-1-methoxy-2-propanesulfonamide], the EC50 worked out at 560 nM. With `COc1cccc(OC)c1-n1c(NS(=O)(=O)[C@@H](C)[C@@H](OC(C)C)c2ncc(Cl)cn2)nnc1[C@H]1CCC(=O)N1` (single isomer, unassigned) [Example 399.0, (1S,2S)-1-(5-chloro-2-pyrimidinyl)-N-(4-(2,6-dimethoxyphenyl)-5-((2R)-5-oxo-2-pyrrolidinyl)-4H-1,2,4-triazol-3-yl)-1-(2-propanyloxy)-2-propanesulfonamide or (1S,2S)-1-(5-chloro-2-pyrimidinyl)-N-(4-(2,6-dimethoxyphenyl)-5-((2S)-5-oxo-2-pyrrolidinyl)-4H-1,2,4-triazol-3-yl)-1-(2-propanyloxy)-2-propanesulfonamide], the EC50 was found to be 470 nM.

Turning to `COc1cccc(OC)c1-n1c(NS(=O)(=O)[C@@H](C)[C@@H](OC(C)C)c2ncc(Cl)cn2)nnc1[C@H]1CCC(=O)N1` (single isomer, unassigned) [Example 400.0, (1S,2S)-1-(5-chloro-2-pyrimidinyl)-N-(4-(2,6-dimethoxyphenyl)-5-((2R)-5-oxo-2-pyrrolidinyl)-4H-1,2,4-triazol-3-yl)-1-(2-propanyloxy)-2-propanesulfonamide or (1S,2S)-1-(5-chloro-2-pyrimidinyl)-N-(4-(2,6-dimethoxyphenyl)-5-((2S)-5-oxo-2-pyrrolidinyl)-4H-1,2,4-triazol-3-yl)-1-(2-propanyloxy)-2-propanesulfonamide], the EC50 came out at 330 nM. Regarding `CO[C@H](c1ncc(Cl)cn1)[C@H](C)S(=O)(=O)Nc1nnc([C@H]2CCOC2)n1Cc1ccon1` (single isomer, unassigned) [Example 401.0, (1R,2S)-1-(5-chloro-2-pyrimidinyl)-1-methoxy-N-(4-(1,2-oxazol-3-ylmethyl)-5-((3R)-tetrahydro-3-furanyl)-4H-1,2,4-triazol-3-yl)-2-propanesulfonamide or (1R,2S)-1-(5-chloro-2-pyrimidinyl)-1-methoxy-N-(4-(1,2-oxazol-3-ylmethyl)-5-((3S)-tetrahydro-3-furanyl)-4H-1,2,4-triazol-3-yl)-2-propanesulfonamide], the half-maximal effective concentration (EC50) is 100 nM. For `CO[C@H](c1ncc(Cl)cn1)[C@H](C)S(=O)(=O)Nc1nnc([C@H]2CCOC2)n1Cc1ccon1` (single isomer, unassigned) [Example 402.0, (1R,2S)-1-(5-chloro-2-pyrimidinyl)-1-methoxy-N-(4-(1,2-oxazol-3-ylmethyl)-5-((3R)-tetrahydro-3-furanyl)-4H-1,2,4-triazol-3-yl)-2-propanesulfonamide or (1R,2S)-1-(5-chloro-2-pyrimidinyl)-1-methoxy-N-(4-(1,2-oxazol-3-ylmethyl)-5-((3S)-tetrahydro-3-furanyl)-4H-1,2,4-triazol-3-yl)-2-propanesulfonamide] the value was 410 nM.

Turning to `CO[C@H](c1ncc(Cl)cn1)[C@H](C)S(=O)(=O)Nc1nnc([C@@H]2CC[C@H](C)O2)n1Cc1ccon1` (single isomer, unassigned) [Example 403.0, (1R,2S)-1-(5-chloro-2-pyrimidinyl)-1-methoxy-N-(5-((2S,5S)-5-methyltetrahydro-2-furanyl)-4-(1,2-oxazol-3-ylmethyl)-4H-1,2,4-triazol-3-yl)-2-propanesulfonamide or (1R,2S)-1-(5-chloro-2-pyrimidinyl)-1-methoxy-N-(5-((2R,5R)-5-methyltetrahydro-2-furanyl)-4-(1,2-oxazol-3-ylmethyl)-4H-1,2,4-triazol-3-yl)-2-propanesulfonamide], the EC50 worked out at 280 nM. The value for `CO[C@H](c1ncc(Cl)cn1)[C@H](C)S(=O)(=O)Nc1nnc([C@@H]2CC[C@H](C)O2)n1Cc1ccon1` (single isomer, unassigned) [Example 404.0, (1R,2S)-1-(5-chloro-2-pyrimidinyl)-1-methoxy-N-(5-((2S,5S)-5-methyltetrahydro-2-furanyl)-4-(1,2-oxazol-3-ylmethyl)-4H-1,2,4-triazol-3-yl)-2-propanesulfonamide or (1R,2S)-1-(5-chloro-2-pyrimidinyl)-1-methoxy-N-(5-((2R,5R)-5-methyltetrahydro-2-furanyl)-4-(1,2-oxazol-3-ylmethyl)-4H-1,2,4-triazol-3-yl)-2-propanesulfonamide] was 81 nM; that for `COc1cccc(OC)c1-n1c(NS(=O)(=O)[C@@H](C)[C@H](OC)c2ncc(Cl)cn2)nnc1[C@H]1CCC(=O)N1C` (single isomer, unassigned) [Example 405.0, (1R,2S)-1-(5-chloropyrimidin-2-yl)-N-(4-(2,6-dimethoxyphenyl)-5-((R)-1-methyl-5-oxopyrrolidin-2-yl)-4H-1,2,4-triazol-3-yl)-1-methoxypropane-2-sulfonamide or (1R,2S)-1-(5-chloropyrimidin-2-yl)-N-(4-(2,6-dimethoxyphenyl)-5-((S)-1-methyl-5-oxopyrrolidin-2-yl)-4H-1,2,4-triazol-3-yl)-1-methoxypropane-2-sulfonamide] was 1720 nM; that for `COc1cccc(OC)c1-n1c(NS(=O)(=O)[C@@H](C)[C@H](OC)c2ncc(Cl)cn2)nnc1[C@H]1CCC(=O)N1C` (single isomer, unassigned) [Example 406.0, (1R,2S)-1-(5-chloropyrimidin-2-yl)-N-(4-(2,6-dimethoxyphenyl)-5-((R)-1-methyl-5-oxopyrrolidin-2-yl)-4H-1,2,4-triazol-3-yl)-1-methoxypropane-2-sulfonamide or (1R,2S)-1-(5-chloropyrimidin-2-yl)-N-(4-(2,6-dimethoxyphenyl)-5-((S)-1-methyl-5-oxopyrrolidin-2-yl)-4H-1,2,4-triazol-3-yl)-1-methoxypropane-2-sulfonamide] was 1080 nM. The value for `COc1cccc(OC)c1-n1c(NS(=O)(=O)[C@@H](C)[C@@H](OC(C)C)c2ccc(C)cn2)nnc1[C@H]1CCOC1` (single isomer, unassigned) [Example 408.0, (1S,2S)-N-(4-(2,6-dimethoxyphenyl)-5-((3R)-tetrahydro-3-furanyl)-4H-1,2,4-triazol-3-yl)-1-(5-methyl-2-pyridinyl)-1-(2-propanyloxy)-2-propanesulfonamide or (1S,2S)-N-(4-(2,6-dimethoxyphenyl)-5-((3S)-tetrahydro-3-furanyl)-4H-1,2,4-triazol-3-yl)-1-(5-methyl-2-pyridinyl)-1-(2-propanyloxy)-2-propanesulfonamide] was 64 nM; that for `COc1cccc(OC)c1-n1c(NS(=O)(=O)[C@@H](C)[C@H](C)c2ccc(Cl)cn2)nnc1C1CCOC1` (single isomer, unassigned) [Example 409.0] was 11 nM.

For the molecule `COc1cccc(OC)c1-n1c(NS(=O)(=O)[C@@H](C)[C@H](C)c2ccc(Cl)cn2)nnc1C1CCOC1` (single isomer, unassigned) [Example 410.0], the EC50 is 19 nM. In the case of `COc1cccc(OC)c1-n1c(NS(=O)(=O)[C@@H](C)[C@@H](OC(C)C)c2ncc(C)cn2)nnc1[C@@H]1COC(C)(C)C1` (single isomer, unassigned) [Example 411.0, (1S,2S)-N-(4-(2,6-dimethoxyphenyl)-5-((3R)-5,5-dimethyltetrahydro-3-furanyl)-4H-1,2,4-triazol-3-yl)-1-(5-methyl-2-pyrimidinyl)-1-(2-propanyloxy)-2-propanesulfonamide or (1S,2S)-N-(4-(2,6-dimethoxyphenyl)-5-((3S)-5,5-dimethyltetrahydro-3-furanyl)-4H-1,2,4-triazol-3-yl)-1-(5-methyl-2-pyrimidinyl)-1-(2-propanyloxy)-2-propanesulfonamide], the EC50 is 86 nM.
